The source of these data is patent US7282595B2, “Antitumor benzoylsulfonamides” (Eli Lilly and Company, priority 2003, dated 2007).

This experiment relates to Human HCT116 colon carcinoma cells. In words: HCT116 Colon Carcinoma Cell Growth Inhibition. The experiment is classed as cell-based. Conditions: WST-1 growth fraction. The protocol:
HCT116 Colon Carcinoma Cell Growth Inhibition
Human HCT116 colon carcinoma cells were grown monolayer culture in RPMI 1640 medium supplemented with 10% fetal bovine serum and 1% penicillin-streptomycin (GibcoBRL, Grand Island, N.Y.). HCT116 cells in exponential growth phase were exposed to various concentrations of the test compounds at 37° C. for 72 hr in 5% carbon dioxide/air. After exposure to the agent, the cells were washed with 0.9% phosphate buffered saline. Growth inhibition was determined using WST-1 cell proliferation reagent as described above. The results are expressed as the growth fraction of treated cells compared with control cultures. Representative compounds of the present invention were tested for efficacy against the human colon HCT116 tumor cells.

[1] abbreviates: Homo sapiens, HCT-116, 72 hr exposure.

With `Cc1cc(Cl)ccc1C(=O)NS(=O)(=O)c1ccc2c(c1)CCO2` [Example 1, N-[4-chloro-2-methylbenzoyl]-2,3-dihydrobenzofuran-5-sulfonamide], it took 9.6 µM to reach half-maximal inhibition under setting [1] (IC50).

Regarding `O=C(NS(=O)(=O)c1ccc2c(c1)OCO2)c1ccc(Cl)cc1Br` [Example 2, N-[4-chloro-2-bromobenzoyl]-benzo[1,3]dioxole-5-sulfonamide], the IC50 under setting [1] amounted to 3.9 µM.

Under setting [1], `Cc1cc(Cl)ccc1C(=O)NS(=O)(=O)c1ccc2c(c1)OCO2` [Example 3, N-[4-chloro-2-methylbenzoyl]-benzo[1,3]dioxole-5-sulfonamide] returned an IC50 of 6.4 µM.

Regarding `Cc1cc(Br)ccc1C(=O)NS(=O)(=O)c1ccc2c(c1)OCO2` [Example 4, N-[4-bromo-2-methylbenzoyl]-benzo[1,3]dioxole-5-sulfonamide], the IC50 under setting [1] was 7.5 µM.

As to `Cc1ccc(C(=O)NS(=O)(=O)c2ccc3c(c2)OCO3)c(Br)c1` [Example 5, N-[4-methyl-2-bromobenzoyl]-benzo[1,3]dioxole-5-sulfonamide], the IC50 under setting [1] was determined as 8.5 µM.

`O=C(NS(=O)(=O)c1ccc2c(c1)OCO2)c1ccc(Br)cc1Br` [Example 6, N-[2,4-dibromobenzoyl]-benzo[1,3]dioxole-5-sulfonamide]: the IC50 under setting [1] amounted to 4.6 µM.

Regarding `O=C(NS(=O)(=O)c1ccc2c(c1)OCO2)c1ccc(Br)cc1Cl` [Example 7, N-[4-bromo-2-chlorobenzoyl]-benzo[1,3]dioxole-5-sulfonamide], it took 13.9 µM to reach half-maximal inhibition under setting [1] (IC50).

In turn, `O=C(NS(=O)(=O)c1cc2ccccc2s1)c1ccc(Cl)cc1Cl` [Example 16, N-[2,4-dichlorobenzoyl]-benzo[b]thiophene-2-sulfonamide] gave an IC50 under setting [1] of 21.8 µM.

`O=C(NS(=O)(=O)c1cc2ccccc2o1)c1ccc(Cl)cc1Cl` [Example 17, N-[2,4-dichlorobenzoyl]-benzofuran-2-sulfonamide] showed an IC50 under setting [1] of 19.8 µM.

In turn, `O=C(NS(=O)(=O)c1ccc2ncsc2c1)c1ccc(Cl)cc1Cl` [Example 18, N-[2,4-dichlorobenzoyl]-benzothiazole-6-sulfonamide] gave a concentration for half-maximal inhibition (IC50) under setting [1] of 14.2 µM.

`O=C(NS(=O)(=O)c1ccc2c(c1)OCCO2)c1ccc(Cl)cc1Cl` [Example 23, N-[2,4-dichlorobenzoyl]-2,3-dihydrobenzo[1,4]dioxane-6-sulfonamide] yielded an IC50 (72 hr exposure) of 4.1 µM.

Turning to `O=C(NS(=O)(=O)c1ccc2c(c1)OCO2)c1ccc(Cl)cc1Cl` [Example 25, N-[2,4-dichlorobenzoyl]-benzo[1,3]dioxole-5-sulfonamide], the IC50 under setting [1] was 2.1 µM.

On to `CN1CCc2ccc(S(=O)(=O)NC(=O)c3ccc(Cl)cc3Cl)cc21` [Example 26, N-[2,4-dichlorobenzoyl]-1-methyl-2,3-dihydro-1H-indole-6-sulfonamide], for which the IC50 under setting [1] was 10 µM.

Regarding `O=C(NS(=O)(=O)c1ccc2c(c1)CC=C2)c1ccc(Cl)cc1Cl` [Example 27, N-[2,4-dichlorobenzoyl]-3H-indene-5-sulfonamide], under setting [1], the IC50 was determined as 3.2 µM.

`O=C(NS(=O)(=O)c1ccc2c(c1)CCC2)c1ccc(Cl)cc1Cl` [Example 28, N-[2,4-dichlorobenzoyl]-indane-5-sulfonamide] came in with an IC50 under setting [1] of 3.2 µM.

`O=C(NS(=O)(=O)c1ccc2c(c1)CCC2=O)c1ccc(Cl)cc1Cl` [Example 29, N-[2,4-dichlorobenzoyl]-1-oxo-indane-5-sulfonamide] had an IC50 under setting [1] of 26.2 µM.

`Cn1c(S(=O)(=O)NC(=O)c2ccc(Cl)cc2Cl)cc2ccccc21` [Example 31, N-[2,4-dichlorobenzoyl]-1-methyl-indole-2-sulfonamide] returned an IC50 under setting [1] of 4.6 µM.

Under “72 hr exposure”, “N-[2,4-dichlorobenzoyl]-tetrahydrobenzofuran-5-sulfonamide [Example 24]” displayed an IC50 of 40 µM.
